Results: patent US20170190726A9, “PRODRUG FOR RELEASE OF CISPLATIN AND CYCLOOXYGENASE INHIBITOR” (priority 2013, published 2017)

Legend:
RAW 264.7 macrophages = assay: MTT cell viability of LPS activated RAW 264.7 macrophages; format: cell-based, mouse; conditions: 10 μM, 24 h
Procedure: FIG. 16: Cytotoxicity of Platin-A (10 μM), cisplatin (10 μM), aspirin (10 μM), and cisplatin (10 μM)+aspirin (10 μM) on LPS activated RAW 264.7 macrophages with incubation time of 24 h.
The cytotoxic behaviors of cisplatin, aspirin, cisplatin+aspirin, and Platin-A were evaluated using the MTT assay against PC3, DU145, LNCaP, and RAW 264.7 cells. Cells (2000 cells/well for PC3, and DU145 cells; 10000 cells/well for LNCaP and RAW 264.7) were seeded on a 96-well plate in 100 μL of desired medium and incubated for 24 h. The cells were treated with different constructs at varying concentrations and incubated for 72 h at 37° C. except for RAW 264.7 macrophages. An incubation time period of 24 h was used for macrophages. The cells were then treated with 20 μL of MTT (5 mg/mL in PBS) for 5 h. The medium was removed, the cells were lysed with 100 μL of DMSO, and the absorbance of the purple formazan was recorded at 550 nm using a Bio-Tek Synergy HT microplate reader. Each well was performed in triplicate. […] The IC50 values were reported at +95% confidence intervals.

[1] = tested on: COX-2 expression in PC3 cells; assay: Immunofluorescence analysis of COX-2 expression in PC3 cells; format: cell-based, Human; conditions: TNF-α 20 ng/mL 2 h, then 1 μM test article 2 h
Procedure: Human TNF-α (20 ng/mL) was then added to the cells and incubated for 2 h. […] The cells were then fixed with a 4% paraformaldehyde solution for 30 min at room temperature. […] The coverslips were washed 3 times with H2O and 3 times with PBS. […] After 5 washes with blocking buffer, the cells were mounted on microscope slides with mounting media (20 mM Tris of pH 8.0, 0.5% N-propyl gallate, and 70% glycerol). Images were collected with 500 ms exposure using DAPI and FITC filters. Relative fluorescence units (RFUs) were also analyzed by a plate reader at an excitation wavelength of 488 nm and an emission of 519 nm.

[2] = Aspirin release from Platin-A by RP-HPLC after sodium ascorbate reduction; format: physicochemical; conditions: acetonitrile-water, HPLC 280 nm
Procedure: The remarkable anticancer activity of cisplatin is due to its inherent proficiency to bind with the N7 position of guanine bases leading to DNA damage. To mimic the intracellular reduction of Platin-A to cisplatin and activity of generated cisplatin with DNA, Platin-A was reduced with sodium ascorbate in the presence of 2′-deoxyguanosine 5′-monophosphate sodium salt hydrate (5′-GMP) as a truncated version of DNA, and the products were analyzed by matrix-assisted laser desorption/ionization (MALDI)-time of flight (TOF)-mass spectrometry (MS). […] Binding studies with 5′-GMP provided strong evidence that cisplatin released upon reduction of Platin-A will interact with nuclear DNA efficiently. The release of the other drug, aspirin from Platin-A was analyzed by HPLC (FIG. 8). […] As time progress, formation of increasing amounts of salicylic acid, the main metabolite of aspirin was detected (FIG. 8). This observation supported the release of aspirin moiety from Platin-A in its pristine form or its final metabolite form for COX inhibitory and anti-inflammatory activities, respectively.
The ability of Platin-A to release aspirin under reducing atmosphere was studied RP-HPLC. Reduction of Platin-A (2.97 mg, 2 mM) was carried out using sodium ascorbate (5.28 mg, 10 mM) in acetonitrile-water (1:2, 3 mL) and reduction product was examined by HPLC. […]

## CC(=O)Oc1ccccc1C(=O)[O][Pt]([NH2])([NH2])([OH])([Cl])[Cl] [Platin-A]
RAW 264.7 macrophages
  cell viability: did not affect cell viability
[1]
  COX-2 expression in TNF-α stimulated PC3 cells: levels were reduced
[2]
  release of aspirin upon reduction: initially produces aspirin upon reduction
